The values that follow come from the NIST ThermoML archive (doi:10.1021/je0601208).

Structures are written as SMILES. Numbers after ± are expanded uncertainties.

A short description of data set [1]: xn = mol fraction of the nth substance listed. To be noted: x2 = 0.
Data set [2] can be described thus: refractive index (Na D-line) (dimensionless); xn = mol fraction of the nth substance listed. To be noted: 100.5 kPa, Liquid, Standard Abbe refractometry, x2 = 0.
The conditions of data set [3]: for mass density: 101.33 kPa, Liquid.
Data set [4] in a line: refractive index (Na D-line) (dimensionless). The conditions noted are these: 101.33 kPa, Liquid, Standard Abbe refractometry.

Consider `CCO` [ethanol] + CCCCCCCC(=O)OCC, for which the surface tension liquid-gas in data set [1] (288.15 K) was 23 ± 0.6 mN/m; in data set [1] (298.15 K), 22.3 ± 0.6 mN/m; in data set [1] (308.15 K), 21.5 ± 0.6 mN/m; in data set [1] (318.15 K) it was 20.6 ± 0.6 mN/m. Moreover, the refractive index in data set [2] (288.15 K) was 1.36333 ± 0.00031; in data set [2] (298.15 K) it was 1.35941 ± 0.00031; in data set [2] (308.15 K) it was 1.35531 ± 0.00031; in data set [2] (318.15 K), 1.35148 ± 0.00031.
In the case of `CCOC(=O)c1ccccc1` [ethyl benzoate], the surface tension liquid-gas is 35.7 ± 0.7 mN/m in data set [3] (288.15 K), 34.6 ± 0.7 mN/m in data set [3] (298.15 K), 33.3 ± 0.7 mN/m in data set [3] (308.15 K) and 32.5 ± 0.7 mN/m in data set [3] (318.15 K). In data set [3] (298.15 K), the mass density is 1041.42 ± 0.14 kg/m3. Besides, the refractive index in data set [4] (288.15 K) amounted to 1.5076 ± 0.00032; in data set [4] (298.15 K), 1.50328 ± 0.00032; in data set [4] (308.15 K), 1.49863 ± 0.00032; in data set [4] (318.15 K), 1.49391 ± 0.00032.
For the compound `CCO` [ethanol] + CCCCCC(=O)OCC, the surface tension liquid-gas in data set [1] (288.15 K) stood at 23 ± 0.6 mN/m; in data set [1] (298.15 K) it was 22.3 ± 0.6 mN/m; in data set [1] (308.15 K), 21.5 ± 0.6 mN/m; in data set [1] (318.15 K), 20.6 ± 0.6 mN/m. Also, the refractive index in data set [2] (288.15 K) was 1.36333 ± 0.00031; in data set [2] (298.15 K) it was 1.35941 ± 0.00031; in data set [2] (308.15 K), 1.35531 ± 0.00031; in data set [2] (318.15 K) it was 1.35148 ± 0.00031.
Consider `CCCC(=O)OCCC(C)C` [3-methylbutyl butanoate], for which the surface tension liquid-gas in data set [3] (288.15 K) is 25.7 ± 0.6 mN/m; in data set [3] (298.15 K), 24.7 ± 0.6 mN/m; in data set [3] (308.15 K) it was 24 ± 0.6 mN/m; in data set [3] (318.15 K) it was 23.1 ± 0.6 mN/m. In addition, the mass density in data set [3] (298.15 K) was 858.69 ± 0.44 kg/m3. For the same compound, the refractive index in data set [4] (288.15 K) is 1.41259 ± 0.00034; in data set [4] (298.15 K), 1.40815 ± 0.00034; in data set [4] (308.15 K), 1.40374 ± 0.00034; in data set [4] (318.15 K), 1.39927 ± 0.00034.
As to `CCO` [ethanol] + CCOC(=O)c1ccccc1, the surface tension liquid-gas in data set [1] (288.15 K) was 23 ± 0.6 mN/m; in data set [1] (298.15 K), 22.3 ± 0.6 mN/m; in data set [1] (308.15 K) it was 21.5 ± 0.6 mN/m; in data set [1] (318.15 K), 20.6 ± 0.6 mN/m. The refractive index in data set [2] (288.15 K) amounted to 1.36333 ± 0.00031; in data set [2] (298.15 K), 1.35941 ± 0.00031; in data set [2] (308.15 K) it was 1.35531 ± 0.00031; in data set [2] (318.15 K), 1.35148 ± 0.00031.
As for `CCCCCC(=O)OCC` [ethyl hexanoate], the surface tension liquid-gas in data set [3] (288.15 K) is 26.4 ± 0.6 mN/m; in data set [3] (298.15 K), 25.4 ± 0.6 mN/m; in data set [3] (308.15 K), 24.5 ± 0.6 mN/m; in data set [3] (318.15 K), 23.6 ± 0.6 mN/m. Further, the mass density in data set [3] (298.15 K) is on record as 866.29 ± 0.21 kg/m3. Besides, the refractive index in data set [4] (288.15 K) was 1.4095 ± 0.00032; in data set [4] (298.15 K), 1.40504 ± 0.00032; in data set [4] (308.15 K), 1.40055 ± 0.00032; in data set [4] (318.15 K), 1.39597 ± 0.00032.
Take `CCO` [ethanol]: the surface tension liquid-gas was 23 ± 0.4 mN/m in data set [3] (288.15 K), 22.3 ± 0.4 mN/m in data set [3] (298.15 K), 21.5 ± 0.4 mN/m in data set [3] (308.15 K) and 20.6 ± 0.4 mN/m in data set [3] (318.15 K). Besides, the mass density in data set [3] (298.15 K) stood at 785 ± 0.24 kg/m3. Besides, the refractive index in data set [4] (288.15 K) worked out at 1.36333 ± 0.00031; in data set [4] (298.15 K), 1.35941 ± 0.00031; in data set [4] (308.15 K), 1.35531 ± 0.00031; in data set [4] (318.15 K), 1.35148 ± 0.00031.
Consider `CCO` [ethanol] + CC(=O)OCCC(C)C, for which the surface tension liquid-gas was 23 ± 0.4 mN/m in data set [1] (288.15 K), 22.3 ± 0.4 mN/m in data set [1] (298.15 K), 21.5 ± 0.4 mN/m in data set [1] (308.15 K) and 20.6 ± 0.4 mN/m in data set [1] (318.15 K). In addition, the refractive index in data set [2] (288.15 K) was found to be 1.36333 ± 0.00031; in data set [2] (298.15 K), 1.35941 ± 0.00031; in data set [2] (308.15 K), 1.35531 ± 0.00031; in data set [2] (318.15 K), 1.35148 ± 0.00031.
`CC(=O)OCCC(C)C` [3-methylbutyl ethanoate]: the surface tension liquid-gas worked out at 25.4 ± 0.4 mN/m in data set [3] (288.15 K), 24.3 ± 0.4 mN/m in data set [3] (298.15 K), 23.4 ± 0.4 mN/m in data set [3] (308.15 K) and 22.4 ± 0.4 mN/m in data set [3] (318.15 K). Also, in data set [3] (298.15 K), the mass density was determined as 867.91 ± 0.45 kg/m3. In addition, the refractive index in data set [4] (288.15 K) was found to be 1.40288 ± 0.00034; in data set [4] (298.15 K) it was 1.39836 ± 0.00034; in data set [4] (308.15 K) it was 1.39365 ± 0.00034; in data set [4] (318.15 K) it was 1.38895 ± 0.00034.
In the case of `CCO` [ethanol] + CCCC(=O)OCCC(C)C, the surface tension liquid-gas in data set [1] (288.15 K) turned out to be 23 ± 0.6 mN/m; in data set [1] (298.15 K), 22.3 ± 0.6 mN/m; in data set [1] (308.15 K) it was 21.5 ± 0.6 mN/m; in data set [1] (318.15 K), 20.6 ± 0.6 mN/m. Moreover, the refractive index was 1.36333 ± 0.00031 in data set [2] (288.15 K), 1.35941 ± 0.00031 in data set [2] (298.15 K), 1.35531 ± 0.00031 in data set [2] (308.15 K) and 1.35148 ± 0.00031 in data set [2] (318.15 K).
As to `CCOC(=O)Cc1ccccc1` [ethyl phenylacetate], the surface tension liquid-gas in data set [3] (288.15 K) is 35.9 ± 0.7 mN/m; in data set [3] (298.15 K), 34.6 ± 0.7 mN/m; in data set [3] (308.15 K) it was 33.5 ± 0.7 mN/m; in data set [3] (318.15 K), 32.8 ± 0.7 mN/m. Moreover, the mass density in data set [3] (298.15 K) worked out at 1026.96 ± 0.35 kg/m3. Also, the refractive index in data set [4] (288.15 K) was 1.49971 ± 0.00034; in data set [4] (298.15 K), 1.49513 ± 0.00034; in data set [4] (308.15 K), 1.49063 ± 0.00034; in data set [4] (318.15 K), 1.48583 ± 0.00034.
`CCO` [ethanol] + CCOC(=O)Cc1ccccc1: the surface tension liquid-gas was determined as 23 ± 0.6 mN/m in data set [1] (288.15 K), 22.3 ± 0.6 mN/m in data set [1] (298.15 K), 21.5 ± 0.6 mN/m in data set [1] (308.15 K) and 20.6 ± 0.6 mN/m in data set [1] (318.15 K). For the same compound, the refractive index in data set [2] (288.15 K) worked out at 1.36333 ± 0.00031; in data set [2] (298.15 K), 1.35941 ± 0.00031; in data set [2] (308.15 K) it was 1.35531 ± 0.00031; in data set [2] (318.15 K) it was 1.35148 ± 0.00031.
As for `CCCCCCCC(=O)OCC` [ethyl octanoate], the surface tension liquid-gas worked out at 27.2 ± 0.6 mN/m in data set [3] (288.15 K), 26.4 ± 0.6 mN/m in data set [3] (298.15 K), 25.5 ± 0.6 mN/m in data set [3] (308.15 K) and 24.7 ± 0.6 mN/m in data set [3] (318.15 K). Also, the mass density in data set [3] (298.15 K) is recorded as 862.15 ± 0.41 kg/m3. The refractive index in data set [4] (288.15 K) came to 1.41991 ± 0.00033; in data set [4] (298.15 K), 1.4156 ± 0.00033; in data set [4] (308.15 K), 1.41137 ± 0.00033; in data set [4] (318.15 K), 1.40702 ± 0.00033.

As usually defined, the surface tension liquid-gas is the work needed to enlarge the surface of a liquid by unit area. In general, refractive index refers to a measure of how strongly the sample bends light. Broadly, the mass density is mass per unit of volume.
